Consider 15 molecules from patent publication US12173018B2, “Penicillin-binding protein inhibitors” (priority 2018, dated 2024).

Holding throughout (format): cell-based
The subject of experiment [1] is E. coli AG100A. The experiment can be described thus: microbe, parasite or virus in culture. The settings on record: Escherichia coli, read-out: MIC E. coli AG100A. The procedure, abridged:
(§1)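 Visual MIC readout after 16-20 h at 37° C in CLSI-format microdilution. Compounds tested as 2-fold series against a 5×10^5 CFU/mL inoculum in cation-supplemented Mueller-Hinton broth.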

The test system of experiment [2] is K. pneumoniae UMM. The experiment can be described thus: microbe, parasite or virus in culture. The conditions noted are these: Klebsiella pneumoniae; K. pneumoniae UMM producing SHV-5 and KPC-2; read-out: MIC K. pneumoniae UMM. An outline of the steps:
as §1

The test system of experiment [3] is E. coli 901C. The experiment can be described thus: microbe, parasite or virus in culture. The settings on record: Escherichia coli; hyper-permeable E. coli 901C, broth microdilution; read-out: MIC E. coli 901C. An outline of the steps:
as §1

Experiment [4] concerns E. coli D22. The experiment can be described thus: microbe, parasite or virus in culture. The settings on record: Escherichia coli; hyper-permeable E. coli D22, broth microdilution; read-out: MIC E. coli D22. An outline of the steps:
as §1

For experiment [5], the system named is K. pneumoniae SI-117. The experiment can be described thus: microbe, parasite or virus in culture. The conditions noted are these: Klebsiella pneumoniae, SI117, read-out: MIC K. pneumoniae SI-117. An outline of the steps:
as §1

Experiment [6] has as its system E. coli AG100. The experiment can be described thus: Broth microdilution MIC, E. coli AG100 (wild-type parent). The conditions noted are these: Escherichia coli; wild-type parent E. coli AG100, broth microdilution; read-out: MIC E. coli AG100. The procedure, abridged:
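Broth microdilution in cation-supplemented Mueller-Hinton broth, 2-fold serial compound dilutions, inoculum 5×10^5 CFU/mL from 3-5 h log culture.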

The subject of experiment [7] is N. gonorrhoeae ATCC 49226. Put plainly: Liquid broth MIC, N. gonorrhoeae ATCC 49226. The conditions noted are these: Neisseria gonorrhoeae, ATCC49226; N. gonorrhoeae ATCC 49226, liquid broth; read-out: Minimum Inhibitory Concentration, N. gonorrhoeae ATCC 49226. An outline of the steps: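 In liquid broth, wild-type reference gonococci at 5×10^5 CFU/mL faced twofold compound dilutions for 40-42 hours (36° C, 5% CO2). The MIC was the lowest concentration with no growth seen by eye.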

In brackets after ≈: the same amount, converted by molar mass.

On to `CCN1CCN(C(=O)NC(C(=O)N[C@H]2Cc3cc(F)cc(C(=O)O)c3OB2O)c2csc(N)n2)C(=O)C1=O` (stereo partly drawn) [Example 16, (3R)-3-(2-(2-aminothiazol-4-yl)-2-(4-ethyl-2,3-dioxopiperazine-1-carboxamido)acetamido)-6-fluoro-2-hydroxy-3,4-dihydro-2H-benzo[e][1,2]oxaborinine-8-carboxylic acid], for which the MIC in experiment [1] was in the range of 2 to 4 µg/mL; in experiment [2], 32 to 64 µg/mL; in experiment [3], 0.5 to 1 µg/mL; in experiment [4] it was 8 to 16 µg/mL; in experiment [5], 32 to 64 µg/mL; in experiment [6], 32 to 64 µg/mL.
With `CCN1CCN(C(=O)NC(C(=O)N[C@H]2Cc3cccc(C(=O)O)c3OB2O)c2ccc(O)cc2)C(=O)C1=O` (stereo partly drawn) [Example 27, (3R)-3-(2-(4-ethyl-2,3-dioxopiperazine-1-carboxamido)-2-(4-hydroxyphenyl)acetamido)-2-hydroxy-3,4-dihydro-2H-benzo[e][1,2]oxaborinine-8-carboxylic acid], the MIC in experiment [1] is 2 to 4 µg/mL; in experiment [2], 32 to 64 µg/mL; in experiment [3], 0.5 to 1 µg/mL; in experiment [4] it was 8 to 16 µg/mL; in experiment [5] it was 32 to 64 µg/mL; in experiment [6], 32 to 64 µg/mL.
With `CCN1CCN(C(=O)NC(C(=O)N[C@H]2Cc3cccc(C(=O)O)c3OB2O)c2ccc(O)c(O)c2Cl)C(=O)C1=O` (stereo partly drawn) [Example 37, (3R)-3-(2-(2-chloro-3,4-dihydroxyphenyl)-2-(4-ethyl-2,3-dioxopiperazine-1-carboxamido)acetamido)-2-hydroxy-3,4-dihydro-2H-benzo[e][1,2]oxaborinine-8-carboxylic acid], the MIC in experiment [7] was in the range of 4 to 8 µg/mL (≈ 6.96 to 13.9 µM); in experiment [1], 2 to 4 µg/mL; in experiment [2], 8 to 16 µg/mL; in experiment [3] it was 0.5 to 1 µg/mL; in experiment [6] it was 32 to 64 µg/mL.
For the molecule `CCN1CCN(C(=O)NC(C(=O)N[C@H]2Cc3cccc(C(=O)O)c3OB2O)c2cnc(N)s2)C(=O)C1=O` (stereo partly drawn) [Example 51, (3R)-3-(2-(2-aminothiazol-5-yl)-2-(4-ethyl-2,3-dioxopiperazine-1-carboxamido)acetamido)-2-hydroxy-3,4-dihydro-2H-benzo[e][1,2]oxaborinine-8-carboxylic acid], the MIC in experiment [1] was 8 to 16 µg/mL; in experiment [2] it was 32 to 64 µg/mL; in experiment [3], 0.5 to 1 µg/mL; in experiment [6], 32 to 64 µg/mL.
On to `CCCN1CCN(C(=O)NC(C(=O)N[C@H]2Cc3cccc(C(=O)O)c3OB2O)c2ccc(O)c(O)c2Cl)C(=O)C1=O` (stereo partly drawn) [Example 82, (3R)-3-(2-(2-chloro-3,4-dihydroxyphenyl)-2-(2,3-dioxo-4-propylpiperazine-1-carboxamido)acetamido)-2-hydroxy-3,4-dihydro-2H-benzo[e][1,2]oxaborinine-8-carboxylic acid], for which the MIC in experiment [1] is 2 to 4 µg/mL; in experiment [2], 32 to 64 µg/mL; in experiment [3], 2 to 4 µg/mL; in experiment [4] it was 2 to 4 µg/mL; in experiment [5], 32 to 64 µg/mL; in experiment [6] it was 32 to 64 µg/mL.
On to `CCN1CCN(C(=O)NC(C(=O)N[C@H]2Cc3cccc(C(=O)O)c3OB2O)c2ccc(O)cc2F)C(=O)C1=O` (stereo partly drawn) [Example 87, (3R)-3-(2-(4-ethyl-2,3-dioxopiperazine-1-carboxamido)-2-(2-fluoro-4-hydroxyphenyl)acetamido)-2-hydroxy-3,4-dihydro-2H-benzo[e][1,2]oxaborinine-8-carboxylic acid], for which the MIC in experiment [7] lay within 1 to 2 µg/mL (≈ 1.84 to 3.69 µM).
On to `CCN1CCN(C(=O)NC(C(=O)N[C@H]2Cc3cccc(C(=O)O)c3OB2O)c2cc(O)c(O)cc2F)C(=O)C1=O` (stereo partly drawn) [Example 90, (3R)-3-(2-(4-ethyl-2,3-dioxopiperazine-1-carboxamido)-2-(2-fluoro-4,5-dihydroxyphenyl)acetamido)-2-hydroxy-3,4-dihydro-2H-benzo[e][1,2]oxaborinine-8-carboxylic acid], for which the MIC was 2 to 4 µg/mL in experiment [1]; 8 to 16 µg/mL in experiment [2]; 0.5 to 1 µg/mL in experiment [3]; 8 to 16 µg/mL in experiment [4]; greater than 128 µg/mL in experiment [5]; 8 to 16 µg/mL in experiment [6].
Take `CCN1CCN(C(=O)NC(C(=O)N[C@H]2Cc3cccc(C(=O)O)c3OB2O)c2ccc(S(N)(=O)=O)cc2)C(=O)C1=O` (stereo partly drawn) [Example 102, (3R)-3-(2-(4-ethyl-2,3-dioxopiperazine-1-carboxamido)-2-(4-sulfamoylphenyl)acetamido)-2-hydroxy-3,4-dihydro-2H-benzo[e][1,2]oxaborinine-8-carboxylic acid]: the MIC in experiment [7] is 1 to 2 µg/mL (≈ 1.7 to 3.4 µM); in experiment [1] it was 2 to 4 µg/mL; in experiment [2], 32 to 64 µg/mL; in experiment [3] it was less than 0.25 µg/mL; in experiment [6] it was 8 to 16 µg/mL.
Consider `NS(=O)(=O)c1ccc(C(NC(=O)N2CCN(CCF)C(=O)C2=O)C(=O)N[C@H]2Cc3cccc(C(=O)O)c3OB2O)cc1` (stereo partly drawn) [Example 103, (3R)-3-(2-(4-(2-fluoroethyl)-2,3-dioxopiperazine-1-carboxamido)-2-(4-sulfamoylphenyl)acetamido)-2-hydroxy-3,4-dihydro-2H-benzo[e][1,2]oxaborinine-8-carboxylic acid], for which the MIC in experiment [7] was 1 to 2 µg/mL (≈ 1.65 to 3.3 µM); in experiment [1] it was 2 to 4 µg/mL; in experiment [2], 32 to 64 µg/mL; in experiment [3] it was less than 0.25 µg/mL; in experiment [6], 8 to 16 µg/mL.
`CCN1CCN(C(=O)NC(C(=O)N[C@H]2Cc3cccc(C(=O)O)c3OB2O)c2cccc(N)n2)C(=O)C1=O` (stereo partly drawn) [Example 104, (3R)-3-(2-(6-aminopyridin-2-yl)-2-(4-ethyl-2,3-dioxopiperazine-1-carboxamido)acetamido)-2-hydroxy-3,4-dihydro-2H-benzo[e][1,2]oxaborinine-8-carboxylic acid]: the MIC is 0.5 to 1 µg/mL in experiment [1]; 32 to 64 µg/mL in experiment [2]; less than 0.25 µg/mL in experiment [3]; 2 to 4 µg/mL in experiment [4]; 32 to 64 µg/mL in experiment [5]; 32 to 64 µg/mL in experiment [6].
As to `CCN1CCN(C(=O)NC(C(=O)N[C@H]2Cc3cccc(C(=O)[O-])c3OB2O)c2ccc[n+](CC(N)=O)c2)C(=O)C1=O` (stereo partly drawn) [Example 107, (3R)-3-(2-(1-(2-amino-2-oxoethyl)pyridin-1-ium-3-yl)-2-(4-ethyl-2,3-dioxopiperazine-1-carboxamido)acetamido)-2-hydroxy-3,4-dihydro-2H-benzo[e][1,2]oxaborinine-8-carboxylate], the MIC in experiment [1] is 8 to 16 µg/mL; in experiment [2], 32 to 64 µg/mL; in experiment [3], 8 to 16 µg/mL; in experiment [4], 32 to 64 µg/mL; in experiment [5], 32 to 64 µg/mL; in experiment [6], 32 to 64 µg/mL.
Take `CCN1CCN(C(=O)N[C@@H](C(=O)N[C@H]2Cc3ccc(F)c(C(=O)O)c3OB2O)[C@@H](C)O)C(=O)C1=O` [Example 110, (R)-3-((2R,3R)-2-(4-ethyl-2,3-dioxopiperazine-1-carboxamido)-3-hydroxybutanamido)-7-fluoro-2-hydroxy-3,4-dihydro-2H-benzo[e][1,2]oxaborinine-8-carboxylic acid]: the MIC was in the range of 8 to 16 µg/mL in experiment [1]; 8 to 16 µg/mL in experiment [2]; 2 to 4 µg/mL in experiment [3]; 8 to 16 µg/mL in experiment [4]; 8 to 16 µg/mL in experiment [5]; 8 to 16 µg/mL in experiment [6].
As for `CCN1CCN(C(=O)NC(C(=O)N[C@H]2Cc3cccc(C(=O)O)c3OB2O)c2cccs2)C(=O)C1=O` (stereo partly drawn) [Example 115, (3R)-3-(2-(4-ethyl-2,3-dioxopiperazine-1-carboxamido)-2-(thiophen-2-yl)acetamido)-2-hydroxy-3,4-dihydro-2H-benzo[e][1,2]oxaborinine-8-carboxylic acid], the MIC was 2 to 4 µg/mL in experiment [1]; 32 to 64 µg/mL in experiment [2]; less than 0.25 µg/mL in experiment [3]; 8 to 16 µg/mL in experiment [4]; 32 to 64 µg/mL in experiment [5]; 32 to 64 µg/mL in experiment [6].
With `CCN1CCN(C(=O)NC(C(=O)N[C@H]2Cc3cccc(C(=O)O)c3OB2O)c2cccc(O)n2)C(=O)C1=O` (stereo partly drawn) [Example 117, (3R)-3-(2-(4-ethyl-2,3-dioxopiperazine-1-carboxamido)-2-(6-hydroxypyridin-2-yl)acetamido)-2-hydroxy-3,4-dihydro-2H-benzo[e][1,2]oxaborinine-8-carboxylic acid], the MIC is 2 to 4 µg/mL in experiment [1]; 32 to 64 µg/mL in experiment [2]; 0.5 to 1 µg/mL in experiment [3]; 8 to 16 µg/mL in experiment [4]; greater than 128 µg/mL in experiment [5]; greater than 128 µg/mL in experiment [6].
Turning to `CCN1CCN(C(=O)NC(C(=O)N[C@H]2Cc3cccc(C(=O)O)c3OB2O)c2cnc(O)cn2)C(=O)C1=O` (stereo partly drawn) [Example 121, (3R)-3-(2-(4-ethyl-2,3-dioxopiperazine-1-carboxamido)-2-(5-hydroxypyrazin-2-yl)acetamido)-2-hydroxy-3,4-dihydro-2H-benzo[e][1,2]oxaborinine-8-carboxylic acid], the MIC fell in the range of 2 to 4 µg/mL in experiment [1]; 8 to 16 µg/mL in experiment [2]; 0.5 to 1 µg/mL in experiment [3]; 8 to 16 µg/mL in experiment [4]; 32 to 64 µg/mL in experiment [5]; 32 to 64 µg/mL in experiment [6].
